“And” between values parts separate entries of the source, which are not always exact repeats. Equal values may be shown once.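 48-hour exposure; five concentrations; linearly interpolated endpoints. GI50 is the concentration that inhibits growth by half. TGI denotes the concentration required for complete inhibition of growth.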
Tests used:
Assay in all cases: DTP human tumour cell line panel, 48 h
[1] = tested on: SNB-75 CNS
[2] = tested on: HOP-92 NSCLC
[3] = tested on: HCC-2998 colon
[4] = tested on: SW-620 colon
[5] = tested on: HT29 colon
[6] = tested on: ACHN renal
[7] = tested on: A549 NSCLC
[8] = tested on: OVCAR-3 ovarian
[9] = tested on: NCI-H522 lung
[10] = tested on: SNB-19 CNS
[11] = tested on: UACC-62 melanoma
[12] = tested on: HCT-15 colon

SMILES	TGI [1]	TGI [2]	TGI [3]	TGI [4]	TGI [5]	TGI [6]	TGI [7]	TGI [8]	TGI [9]	TGI [10]	TGI [11]	TGI [12]	GI50 [3]	GI50 [4]	GI50 [7]	GI50 [8]	GI50 [9]
CCOC(=O)C(=CNC(=S)Nc1c(CC)cccc1CC)C(=O)OCC	92.6 µM	> 100 µM	> 100 µM	> 100 µM	> 100 µM	> 100 µM	> 100 µM	> 100 µM	> 100 µM	> 100 µM	> 100 µM	–	–	–	–	–	–
COc1ccc2c(c1)N=C1CSC(c3c(Cl)cccc3[N+](=O)[O-])N1C2 (configuration not stated)	98.5 µM	> 100 µM	47.7 µM	> 100 µM	> 100 µM	> 100 µM	> 100 µM	–	> 100 µM	> 100 µM	48.1 µM	> 100 µM	–	–	–	–	–
Cc1c(F)c(N)c2c(=O)cc(-c3ccc(NC(=O)[C@@H](N)CCCCN)c(F)c3)oc2c1F	13.6 µM	68.5 µM and 39.8 µM	18.7 µM and 19.7 µM	39 µM and 17.3 µM	31 µM and 26.4 µM	31.1 µM and 25.6 µM	31 µM and 18.4 µM	20.7 µM and 14.8 µM	45.5 µM and 35.3 µM	> 78.7 µM and 49.5 µM	–	30.4 µM and 30.3 µM	0.253 µM and 0.769 µM	7.81 µM and 1.71 µM	3.03 µM and 0.59 µM	0.508 µM and 0.249 µM	19.7 µM and 4.68 µM
C/C(=N/NC(=S)NCCc1ccccn1)c1cnccn1	> 100 µM	> 100 µM	> 100 µM	> 100 µM	> 100 µM	> 100 µM	> 100 µM	> 100 µM	> 100 µM	> 100 µM	64.1 µM	–	–	–	–	–	–
O=C1NC(=NC2CCCCC2)C2(CCN(CCCC3(c4ccc(F)cc4)OCCO3)CC2)N1c1ccccc1	29.8 µM	–	–	50.2 µM	33.1 µM	28.4 µM	46.3 µM	25.6 µM	34.1 µM	35 µM	–	36.9 µM	–	–	–	–	–
Clc1ccccc1-c1nnc2c(-c3ccccc3)nc3ccccc3n12	–	> 100 µM	> 100 µM	> 100 µM	> 100 µM	> 100 µM	> 100 µM	> 100 µM	–	> 100 µM	> 100 µM	> 100 µM	–	–	–	–	–
O=C1C(=C(C(=O)c2ccccc2)C(=O)c2ccccc2)OC(c2ccccc2)=C1C(=O)c1ccccc1	–	31.6 µM	27.6 µM	–	26.5 µM	20.1 µM	51.6 µM	23 µM	19.5 µM	> 100 µM	22.8 µM	14.9 µM	–	–	–	–	–
CC(C)(C)c1cc(C(=O)/C=C/c2ccc3c(c2)CCO3)cc(C(C)(C)C)c1O	–	> 100 µM	3.8 µM	> 100 µM	> 27.2 µM	> 100 µM	22.9 µM	> 100 µM	2.16 µM	> 82.3 µM	29.6 µM	> 25.9 µM	–	–	–	–	–
COc1ccc(NS(=O)c2ccc(OC)cc2)cc1 (configuration not stated)	–	–	> 100 µM	> 100 µM	> 100 µM	> 100 µM	> 100 µM	> 100 µM	> 100 µM	> 100 µM	66.2 µM	> 100 µM	–	–	–	–	–
Nc1ccccc1OCc1cc(=O)c(OCc2ccccc2)co1	–	36.4 µM	–	> 100 µM	> 100 µM	> 100 µM	> 100 µM	> 100 µM	–	> 100 µM	4.49 µM	> 100 µM	–	–	–	–	–
CC(C)(C)N(Cc1ccoc1)C(=O)/C=C\S(=O)c1ccccc1 (configuration not stated)	–	34.4 µM	34.3 µM	32 µM	97.7 µM	86.5 µM	> 100 µM	26.2 µM	40.5 µM	88.8 µM	39.3 µM	51.4 µM	–	–	–	–	–
CC(=O)OC[C@@H](OC(C)=O)[C@@H](OC(C)=O)[C@H]1OC[C@@H]2C[C@H]([C@H]1OC(C)=O)N(Cc1ccccc1)O2	> 100 µM	> 100 µM	> 100 µM	> 100 µM	> 100 µM	> 100 µM	> 100 µM	> 100 µM	–	> 100 µM	> 100 µM	–	–	–	–	–	–
CCN1C[C@]2(C)CC[C@H](OCc3ccccc3)C34C5C[C@@H]6CC[C@](O)(C(C[C@@H]32)C14)C5[C@H]6OCc1ccccc1 (some centres not stated)	> 100 µM	> 100 µM	> 100 µM	> 100 µM	> 100 µM	> 100 µM	> 100 µM	> 100 µM	–	> 100 µM	> 100 µM	> 100 µM	–	–	–	–	–
CC1=NN(C(=O)c2ccccc2O)C(c2ccccc2Cl)C1C(=O)Nc1ccccc1 (configuration not stated)	–	> 100 µM	> 100 µM	> 100 µM	> 100 µM	> 100 µM	> 100 µM	> 51.3 µM	0.692 µM	> 100 µM	> 51.2 µM	> 100 µM	–	–	–	–	–
O=C(n1c(=O)n(-c2ccc(Cl)cc2)c(=O)n1C(=O)C(Cl)(Cl)Cl)C(Cl)(Cl)Cl	–	> 100 µM	> 100 µM	> 100 µM	> 100 µM	> 100 µM	> 100 µM	> 100 µM	> 100 µM	> 100 µM	> 100 µM	–	–	–	–	–	–
Nc1cccc(C#Cc2cccc(C#Cc3cccc(N)n3)n2)n1	> 100 µM	> 100 µM	> 100 µM	> 100 µM	–	> 100 µM	–	> 100 µM	> 100 µM	> 100 µM	> 100 µM	> 100 µM	–	–	–	–	–
O=CC1C[C@@H](N2C(=O)O[C@@H](c3ccccc3)[C@H]2c2ccccc2)[C@@H]1COCc1ccccc1 (some centres not stated)	–	30.3 µM	34.9 µM	77.1 µM	37.8 µM	73.2 µM	> 100 µM	36.4 µM	34 µM	37.6 µM	39.9 µM	36.3 µM	–	–	–	–	–
Nc1nc(Cl)cc(NCCCCCCCCCCCCNc2cc(Cl)nc(N)n2)n1	34 µM	19.3 µM	> 100 µM	> 100 µM	> 100 µM	–	> 100 µM	> 100 µM	–	–	> 100 µM	> 100 µM	–	–	–	–	–
COc1cc(C2(O)c3ccccc3C3=NCCN32)cc(OC)c1OC (configuration not stated)	> 100 µM	> 100 µM	> 100 µM	> 100 µM	> 100 µM	> 100 µM	> 100 µM	> 100 µM	–	> 100 µM	> 100 µM	> 100 µM	–	–	–	–	–
